Assay results taken from US9629919B2, “Drug delivery of temozolomide for systemic based treatment of cancer” (CEDARS-SINAI MEDICAL CENTER, priority 2009, dated 2017).
“Also recorded” adds a separate entry of the source.

Columns and labels:
physchem = format: physicochemical; conditions: buffer, pH 7.4
Protocol: The conjugation reaction of PMLA with PEG, TMZH, LLL and LOEt was followed by thin layer chromatography (TLC) on precoated silica gel 60 F254 aluminum sheets (Merck, Darmstadt, Germany) and visualization of spots by UV light and/or by ninhydrin staining. The concentration of free or conjugated TMZH was monitored by reading A328 and using known amounts of TMZ or TMZH standards. Size exclusion chromatography was performed on LACHROM ELITE, an analytical High Performance Liquid Chromatograph (HPLC) system with Diode Array Detector L 2455 (Hitachi, Pleasanton, Calif., USA), and Mw was measured using BioSep-SEC-S 3000 (300×7.80 mm) (Phenomenex, Torrance, Calif., USA) with 50 mM sodium phosphate buffer pH 6.8 and polystyrene sulfonates as molecular weight standards. Thiol residues attached to PMLA were assayed by the method of Ellman. Enzyme-linked immunosorbent assay (ELISA) was used to determine the functional activity of conjugated antibody using a Protein Detector ELISA Kit (KPL, Inc., Gaithersburg, Mass., USA). Human TfR ectodomain used as antigen was obtained from Protein Expression Center, California Institute of Technology, Pasadena, USA.
TMZ is a prodrug and undergoes spontaneous conversion to the active alkylating agent at neutral or alkaline pH. Half-lives were measured at physiological pH 7.4 in PBS and summarized in Table I. The decomposition of free and conjugated TMZH by hydrolytic ring opening (Chart 1) was a first order reaction for free TMZ or TMZH and conjugated TMZH (data not shown). […] Similar data have been reported for TMZ conjugated with small carbon chains (6). No detectable decomposition was observed during 24 h at pH 5.0 at RT.

U87MG = experiment: Cell viability (MTS); format: cell-based, human
Protocol: (§1) Primary glioma cell lines U87MG and T98G, and invasive breast carcinoma cell lines MDA-MB-231 and MDA-MB-468 were obtained from American Type Culture Collection (ATCC, Manassas, Va., USA) USA. U87MG and T98G cells were cultured in MEM supplemented with 10% fetal bovine serum, 1% MEM NEAA, 1 mM sodium pyruvate and 2 mM L-glutamine. For MDA-MB-231 and MDA-MB-468, Leibovitz's L-15 medium with 10% fetal bovine serum was used. Cells were seeded at 10^3 per well (0.1 ml) in 96-well flat-bottomed plates and incubated overnight at 37° C. in humid atmosphere with 5% CO2 (MDA-MB-231 and MDA-MB-468 were incubated without CO2). After exposure to synthesized conjugates for 24 h, medium was replaced every 48 h. Cell viability was measured on day 5 for T98G and day 7 for the rest of the cell lines using the CELLTITER 96 Aqueous One Solution Cell Proliferation Assay kit (Cat. No. PR-G3580; Promega, Madison, Wis., USA). Yellow [3-(4,5-dimethylthiazol-2-yl)-5-(3-carboxymethoxyphenyl)-2-(4-sulfophenyl-)-2H-tetrazolium, inner salt] (MTS) is bioreduced by cells into formazan that is soluble in the tissue culture medium. The absorbance reading at 490 nm from the 96-well plates is directly proportional to the number of living cells (32). The viability of the untreated cells was taken as 100%. The results shown are the means±standard deviation of three independent measurements. Data were analyzed by statistical software GRAPHPAD PRISM 3.0.

MDA-MB-231 = experiment: Cell viability (MTS); format: cell-based, human; conditions: MDA-MB-231, 24 h exposure, viability on day 7, untreated = 100%
Protocol: as §1

T98G = experiment: Cell viability (MTS); format: cell-based, human; conditions: 24 h exposure, viability on day 5, untreated = 100%
Protocol: as §1

MDA-MB-468 = experiment: Cell viability (MTS); format: cell-based, human; conditions: MDA-MB-468, 24 h exposure, viability on day 7, untreated = 100%
Protocol: as §1

Compound	Half-life of TMZ (physchem) [h]	half-life (physchem) [h]	effect on cell viability (U87MG; 24 h exposure, viability on day 7, untreated = 100%)	order of increasing potency on cell viability (U87MG; FIG. 6a)	effect on cell viability (MDA-MB-231)	effect on cell viability (T98G)	effect on cell viability (MDA-MB-468)
Cn1nnc2c(C(N)=O)ncn2c1=O [TMZ, temozolomide]	1.8	1.8 ± 0.1	stronger effect on U87MG cells than the nanoconjugates; also recorded: responded	P/PEG(2%)/LLL(40%)/TMZH(17%)/IgG(0.25%)<P/PEG(2%)/LLL(40%)/TMZH(17%)<P/PEG(2%)/LLL(40%)/TMZH(17%)/HuTfR mAb(0.25%)<TMZ	inactive; also recorded: did not change	inactive; also recorded: did not change	inactive; also recorded: ineffective at all concentrations below 130 μM; also recorded: did not change
Cn1nnc2c(C(=O)NN)ncn2c1=O [TMZH, temozolomide hydrazide]		1.98 ± 0.1					
